Laboratory results published in PubChem BioAssay (NCI).
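Five concentrations, 48 hours, 96-well plates. At the TGI there is no net growth.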

Tests used:
Assay in all cases: inhibition of tumour cell growth, NCI panel, 48 h
LOX IMVI melanoma = system: LOX IMVI melanoma
A498 renal = system: A498 renal
DMS 114 small cell lung = system: DMS 114 small cell lung
SW-620 colon = system: SW-620 colon
786-0 renal = system: 786-0 renal
M19-MEL melanoma = system: M19-MEL melanoma
SNB-19 CNS = system: SNB-19 CNS
SK-MEL-28 melanoma = system: SK-MEL-28 melanoma
K-562 leukemia = system: K-562 leukemia
HOP-18 NSCLC = system: HOP-18 NSCLC
IGROV1 ovarian = system: IGROV1 ovarian
SF-539 CNS = system: SF-539 CNS
LXFL 529 NSCLC = system: LXFL 529 NSCLC
OVCAR-5 ovarian = system: OVCAR-5 ovarian
CCRF-CEM leukemia = system: CCRF-CEM leukemia
SK-MEL-5 melanoma = system: SK-MEL-5 melanoma
OVCAR-3 ovarian = system: OVCAR-3 ovarian
SN12C renal = system: SN12C renal
HOP-92 NSCLC = system: HOP-92 NSCLC
NCI-H226 lung = system: NCI-H226 lung
RPMI-8226 leukemia = system: RPMI-8226 leukemia
HCC-2998 colon = system: HCC-2998 colon
CAKI-1 renal = system: CAKI-1 renal
A549 NSCLC = system: A549 NSCLC
HOP-62 NSCLC = system: HOP-62 NSCLC
COLO 205 colon = system: COLO 205 colon
M14 melanoma = system: M14 melanoma
UO-31 renal = system: UO-31 renal
NCI-H460 lung = system: NCI-H460 lung
SK-OV-3 ovarian = system: SK-OV-3 ovarian
DMS 273 small cell lung = system: DMS 273 small cell lung
ACHN renal = system: ACHN renal
SF-268 CNS = system: SF-268 CNS
UACC-257 melanoma = system: UACC-257 melanoma
MOLT-4 leukemia = system: MOLT-4 leukemia
DLD-1 colon = system: DLD-1 colon
EKVX NSCLC = system: EKVX NSCLC
KM20L2 colon = system: KM20L2 colon
HCT-15 colon = system: HCT-15 colon
OVCAR-8 ovarian = system: OVCAR-8 ovarian
MALME-3M melanoma = system: MALME-3M melanoma
HT29 colon = system: HT29 colon
OVCAR-4 ovarian = system: OVCAR-4 ovarian
UACC-62 melanoma = system: UACC-62 melanoma
SNB-75 CNS = system: SNB-75 CNS
SR leukemia = system: SR leukemia
U251 CNS = system: U251 CNS
KM12 colon = system: KM12 colon
SNB-78 CNS = system: SNB-78 CNS
NCI-H23 lung = system: NCI-H23 lung
TK-10 renal = system: TK-10 renal
RXF 393 renal = system: RXF 393 renal
HCT-116 colon = system: HCT-116 colon
SF-295 CNS = system: SF-295 CNS

**Q.** How did the TGI (LOX IMVI melanoma) turn out when `COC(=O)C1=C(c2cc(OC)c(OC)c(OC)c2)OC(c2ccc3c(c2)OCO3)C1` (centres undefined) was run?
**A.** > 100 µM

**Q.** What about the TGI (A498 renal) of the same compound?
**A.** 52.2 µM

**Q.** What about the TGI (DMS 114 small cell lung) of the same compound?
**A.** 45.7 µM

**Q.** And the TGI (SW-620 colon)?
**A.** 67.3 µM

**Q.** What about the TGI (786-0 renal) of the same compound?
**A.** > 100 µM

**Q.** And the TGI (M19-MEL melanoma)?
**A.** > 100 µM

**Q.** What about the TGI (SNB-19 CNS) of the same compound?
**A.** > 100 µM

**Q.** And the TGI (SK-MEL-28 melanoma)?
**A.** > 100 µM

**Q.** And the TGI (K-562 leukemia)?
**A.** > 100 µM

**Q.** What about the TGI (HOP-18 NSCLC) of the same compound?
**A.** > 100 µM

**Q.** What about the TGI (IGROV1 ovarian) of the same compound?
**A.** 29.5 µM

**Q.** What about the TGI (SF-539 CNS) of the same compound?
**A.** > 100 µM

**Q.** What about the TGI (LXFL 529 NSCLC) of the same compound?
**A.** 90 µM

**Q.** And the TGI (OVCAR-5 ovarian)?
**A.** > 100 µM

**Q.** And the TGI (CCRF-CEM leukemia)?
**A.** > 100 µM

**Q.** What about the TGI (SK-MEL-5 melanoma) of the same compound?
**A.** > 100 µM

**Q.** And the TGI (OVCAR-3 ovarian)?
**A.** 81.7 µM

**Q.** What about the TGI (SN12C renal) of the same compound?
**A.** > 100 µM

**Q.** What about the TGI (HOP-92 NSCLC) of the same compound?
**A.** > 100 µM

**Q.** And the TGI (NCI-H226 lung)?
**A.** > 100 µM

**Q.** And the TGI (RPMI-8226 leukemia)?
**A.** > 100 µM

**Q.** And the TGI (HCC-2998 colon)?
**A.** > 100 µM

**Q.** What about the TGI (CAKI-1 renal) of the same compound?
**A.** > 100 µM

**Q.** And the TGI (A549 NSCLC)?
**A.** > 100 µM

**Q.** What about the TGI (HOP-62 NSCLC) of the same compound?
**A.** > 100 µM

**Q.** And the TGI (COLO 205 colon)?
**A.** 26.8 µM

**Q.** And the TGI (M14 melanoma)?
**A.** > 100 µM

**Q.** What about the TGI (UO-31 renal) of the same compound?
**A.** > 100 µM

**Q.** And the TGI (NCI-H460 lung)?
**A.** > 100 µM

**Q.** What about the TGI (SK-OV-3 ovarian) of the same compound?
**A.** > 100 µM

**Q.** And the TGI (DMS 273 small cell lung)?
**A.** > 100 µM

**Q.** And the TGI (ACHN renal)?
**A.** > 100 µM

**Q.** And the TGI (SF-268 CNS)?
**A.** > 100 µM

**Q.** What about the TGI (UACC-257 melanoma) of the same compound?
**A.** > 100 µM

**Q.** And the TGI (MOLT-4 leukemia)?
**A.** > 100 µM

**Q.** What about the TGI (DLD-1 colon) of the same compound?
**A.** > 100 µM

**Q.** And the TGI (EKVX NSCLC)?
**A.** 99.2 µM

**Q.** And the TGI (KM20L2 colon)?
**A.** 58.2 µM

**Q.** What about the TGI (HCT-15 colon) of the same compound?
**A.** > 100 µM

**Q.** What about the TGI (OVCAR-8 ovarian) of the same compound?
**A.** > 100 µM

**Q.** What about the TGI (MALME-3M melanoma) of the same compound?
**A.** > 100 µM

**Q.** What about the TGI (HT29 colon) of the same compound?
**A.** 97.5 µM

**Q.** And the TGI (OVCAR-4 ovarian)?
**A.** > 100 µM

**Q.** What about the TGI (UACC-62 melanoma) of the same compound?
**A.** 35.5 µM

**Q.** And the TGI (SNB-75 CNS)?
**A.** > 100 µM

**Q.** What about the TGI (SR leukemia) of the same compound?
**A.** 62.8 µM

**Q.** And the TGI (U251 CNS)?
**A.** > 100 µM

**Q.** And the TGI (KM12 colon)?
**A.** > 100 µM

**Q.** What about the TGI (SNB-78 CNS) of the same compound?
**A.** > 100 µM

**Q.** What about the TGI (NCI-H23 lung) of the same compound?
**A.** 98.9 µM

**Q.** What about the TGI (TK-10 renal) of the same compound?
**A.** > 100 µM

**Q.** And the TGI (RXF 393 renal)?
**A.** > 100 µM

**Q.** What about the TGI (HCT-116 colon) of the same compound?
**A.** > 100 µM

**Q.** And the TGI (SF-295 CNS)?
**A.** > 100 µM
